From publication PMC7125519 (European Journal of Medicinal Chemistry, 2016)

How the values were obtained:
[1] = test system: human embryonic lung (HEL) cells; conditions: HEL cell cultures (Table 5); microscopically detectable alteration of normal cell morphology
[2] = test system: immortalized human dermal microvascular endothelial cells (HMEC-1); assay: Cytostatic activity, HMEC-1 proliferation; type: cell-based; conditions: HMEC-1, read-out: IC50 HMEC-1, inhibit cell proliferation by 50%
[3] = test system: TK+ VZV Oka strain; type: cell-based, varicella-zoster virus
[4] = test system: TK− VZV 07-1 strain; type: cell-based, varicella-zoster virus
[5] = test system: human cervix carcinoma (HeLa) cells; conditions: read-out: IC50 HeLa; inhibit cell proliferation by 50%; cited from earlier work
[6] = test system: murine leukemia (L1210) cells; conditions: read-out: IC50 L1210; inhibit cell proliferation by 50%; cited from earlier work
[7] = test system: human T-lymphocyte (CEM) cells; conditions: read-out: IC50 CEM; inhibit cell proliferation by 50%; cited from earlier work
[8] = test system: Human Coronavirus (229E); type: cell-based; conditions: read-out: Antiviral activity EC50 Human Coronavirus (229E)

Work on `Cc1cn([C@H]2C[C@H](F)[C@@H](CO)O2)c(=O)[nH]c1=O` [Alovudine] yielded a Minimum cytotoxic concentration [1] of over 250 µM.

Work on `CCOP(=O)(OCC)[C@@H]1C[C@@H](Cn2c(=O)n(C(=O)c3ccc(F)cc3)c(=O)c3ccccc32)ON1C` (relative stereo) [trans-12d, Diethyl trans-{5-[(3-(4-fluorobenzoyl)-2,4-dioxo-3,4-dihydroquinazolin-1(2H)-yl)methyl]-2-methylisoxazolidin-3-yl}phosphonate] yielded an IC50 [2] of over 250 µM and a Minimum cytotoxic concentration [1] of at least 100 ± 0 µM.

With `NC(=O)c1ncn([C@@H]2O[C@H](CO)[C@@H](O)[C@H]2O)n1` [Ribavirin] the Minimum cytotoxic concentration [1] was at least 250 µM.

Work on `Nc1ccn(C[C@@H](CO)OCP(=O)(O)O)c(=O)n1.O.O` [Cidofovir] yielded a Minimum cytotoxic concentration [1] of over 250 µM.

With `CCOP(=O)(OCC)C1CC(Cn2c(=O)n(Cc3ccc(F)cc3)c(=O)c3ccccc32)ON1Cc1ccccc1` (stereo not drawn) [trans-15d/cis-15d (95:5)] the “fold less active against the TK+ virus compared to acyclovir” value [3] was 4–6 fold and the “fold more active against the TK– strain compared to acyclovir” value [4] was 10–14 fold.

For `Nc1ccn([C@H]2CC[C@@H](CO)O2)c(=O)n1` [Zalcitabine], the Minimum cytotoxic concentration [1] was over 250 µM.

For `CCOP(=O)(OCC)[C@H]1C[C@@H](Cn2c(=O)n(C(=O)c3ccccc3)c(=O)c3ccccc32)ON1C` [cis-12a], the IC50 [5] is given as over 200 µM and the IC50 [6] is given as over 200 µM.

For `CCOP(=O)(OCC)[C@@H]1C[C@@H](Cn2c(=O)n(C(=O)c3ccccc3)c(=O)c3ccccc32)ON1Cc1ccccc1` (relative stereo) [trans-13a, Diethyl trans-{5-[(3-benzoyl-2,4-dioxo-3,4-dihydroquinazolin-1(2H)-yl)methyl]-2-benzylisoxazolidin-3-yl}phosphonate], the IC50 [2] was over 250 µM.

In the case of `CCOP(=O)(OCC)[C@@H]1C[C@@H](Cn2ccc(=O)n(C(=O)c3ccccc3)c2=O)ON1C` [trans-11a], the IC50 [5] is listed as over 200 µM, the IC50 [6] is listed as over 200 µM and the IC50 [7] is listed as over 200 µM.

`Nc1nc(O)c2ncn(COC(CO)CO)c2n1` [Ganciclovir] showed a Minimum cytotoxic concentration [1] of over 100 µM.

Molecule `Nc1nc2c(ncn2COCCO)c(=O)[nH]1` [Acyclovir] has a Minimum cytotoxic concentration [1] of over 250 µM.

For `CCOP(=O)(OCC)[C@@H]1C[C@@H](Cn2c(=O)n(C(=O)c3ccccc3)c(=O)c3ccccc32)ON1C` [trans-12a], the IC50 [6] is listed as at least 159 µM.

In the case of `CCOP(=O)(OCC)[C@H]1C[C@@H](Cn2ccc(=O)n(C(=O)c3ccccc3)c2=O)ON1C` [cis-11a], the IC50 [5] is listed as over 200 µM, the IC50 [6] is listed as over 200 µM and the IC50 [7] is listed as over 200 µM.

For `CCOP(=O)(OCC)C1CC(Cn2c(=O)n(Cc3ccccc3F)c(=O)c3ccccc32)ON1Cc1ccccc1` (stereo not drawn) [cis-15b/trans-15b (87:13)], the “fold less active against the TK+ virus compared to acyclovir” value [3] was 4–6 fold and the “fold more active against the TK– strain compared to acyclovir” value [4] was 10–14 fold.

B1: UDA: Urtica dioica agglutinin (UDA), reference compound (protein, UniProt P11218 24-372, looked up)
Lectin/endochitinase 1: QRCGSQGGGGTCPALWCCSIWGWCGDSEPYCGRTCENKCWSGERSDHRCGAAVGNPPCGQDRCCSVHGWCGGGNDYCSGSKCQYRCSSSVRGPRVALSGNSTANSIGNVVVTEPLFDQMFSHRKDCPSQGFYSYHSFLVAAESFPAFGTIGDVATRKREVAAFLAHISQATSGERSDVENPHAWGLCHINTTTVTENDFCTSSDWPCAAGKKYSPRGPIQLTHNFNYGLAGQAIGEDLIQNPDLVEKDPIISFKTALWFWMSQHDNKPSCHDIVLNANSAANRIPNKGVIGNIISRAFGHDDFAVRSSSIGFYKRYCDMLGVSYGHDLKYWFDNTPSSEFQRIQMRVAA
Work on B1 yielded a Minimum cytotoxic concentration [1] of at least 100 µM and an EC50 [8] of 0.4 µM.
